Values quoted from earlier work, collected in patent US20090026122A1, “BIOCOMPATIBLE SOLID-PHASE MICROEXTRACTION COATINGS AND METHODS FOR THEIR PREPARATION” (Janusz, priority 2002, published 2009).

Test system: plasma proteins
Settings: previously published values

CN(C)C(=O)C(CCN1CCC(O)(c2ccc(Cl)cc2)CC1)(c1ccccc1)c1ccccc1 [Loperamide, loperamide]
Plasma Protein Binding % Literature Values (range): 95-97%
